Results as given in patent US11674962B2, “Therapeutic and diagnostic methods for cancer” (Genentech, Inc., priority 2017, dated 2023).

Legend:
[1] = tested on: locally advanced or metastatic non-small cell lung cancer (NSCLC); test: OAK phase III clinical trial (NCT02008227): atezolizumab vs docetaxel, outcomes by bTMB score and PD-L1 IHC; assay type: in vivo, human; settings: OAK
Protocol: (§1) A blood-based assay was used to evaluate the association between clinical response to treatment with atezolizumab (MPDL3280A) and blood tumor mutational burden (bTMB) score in patients with non-small cell lung cancer (NSCLC) enrolled in two clinical trials, a phase II clinical trial, POPLAR (Clinical Trial ID No.: NCT01903993), and a phase III clinical trial, OAK (Clinical Trial ID No.: NCT02008227), in which atezolizumab was administered as a monotherapy.
(§2) Pre-treatment blood samples from patients with NSCLC who were enrolled in the POPLAR and/or the OAK studies, in which atezolizumab was administered as a monotherapy, were evaluated for bTMB score and/or maximum somatic allele frequency (MSAF).
The OAK (Clinical Trial ID No.: NCT02008227) patient population evaluated for bTMB score consisted of 583 patients. Patients were eligible for enrollment in the OAK study if they had locally advanced or metastatic (e.g., stage IIIB, stage IV, or recurrent) NSCLC; disease progression during or following treatment with a prior platinum-containing regimen for locally advanced, unresectable/inoperable, or metastatic NSCLC, or disease recurrence within 6 months of treatment with a platinum-based adjuvant/neoadjuvant regimen; measurable disease, as defined by RECIST v1.1; and an ECOG performance status of 0 or 1. Participants were randomized to receive either atezolizumab at a dose of 1200 mg intravenously every three weeks or docetaxel 75 mg per square meter (mg/m^2) intravenously every three weeks. Treatment with atezolizumab could be continued as long as participants were experiencing clinical benefit, i.e., in the absence of unacceptable toxicity or symptomatic deterioration attributed to disease progression.
(§3) Analysis of bTMB was performed retrospectively. Progression-free survival (PFS) was defined as the time between date of randomization and date of first documented disease progression as assessed by the investigator using RECIST v.1.1 or death from any cause, whichever occurred first. Overall survival (OS) was defined as the time between the date of randomization until death due to any cause. Treatment arms were compared for OS and PFS individually using a univariate Cox regression model without stratification in the biomarker evaluable-population (BEP) and their subgroups or using a stratified (by randomization stratification factors) Cox model in the ITT population. No multiplicity correction was applied to p-values or confidence intervals (CI). Kaplan-Meier methodology was used to estimate median OS and PFS and construct survival curves.
In the OAK ITT population (N=850), 797 samples were available for analysis. Of these samples, 13 were removed for sample contamination >1%; 42 were removed for median exon coverage <800×; and 100 were removed for low MSAF<1%.
The OAK BEP (N=642) included 59 patients with EGFR mutation or ALK rearrangement, and 583 without known alterations.
(§4) To identify somatic mutations and calculate a bTMB score, whole blood samples obtained from each patient (collected in EDTA or Streck tubes) were processed through a series of spins to isolate plasma, from which cell free DNA (cfDNA) was extracted for sequencing analysis. Specifically, at least 20 ng purified cfDNA was used for library construction. Next-generation sequencing libraries using fragment barcodes and hybrid capture were constructed to analyze and sequence a pre-determined set of 394 genes that covered approximately 1.125 Mb of the exome. Specifically, purified libraries were hybrid captured using a 394-gene bait set and then further purified, pooled and loaded on an ILLUMINA® HISEQ® 4000 sequencing system. Sequenced libraries were aligned and sorted. In order to accurately call variants at low allele frequencies and minimize artifacts from sequencing, PCR, or DNA damage-related errors, sequenced libraries were processed by a cfDNA computational pipeline that corrected errors via the use of fragment barcodes. […]

[2] = tested on: locally advanced or metastatic non-small cell lung cancer (NSCLC); test: POPLAR phase II clinical trial (NCT01903993): atezolizumab vs docetaxel, outcomes by bTMB score; assay type: in vivo, human; settings: bTMB≥16, per treatment arm
Protocol: as §1, §2
The POPLAR (Clinical Trial ID No.: NCT01903993) patient population evaluated for bTMB score consisted of 273 patients. Patients were eligible for enrollment in the POPLAR study if they had locally advanced or metastatic (e.g., stage IIIB, stage IV, or recurrent) non-small cell lung cancer (NSCLC); disease progression during or following treatment with a prior platinum-containing regimen for locally advanced, unresectable/inoperable, or metastatic NSCLC, or disease recurrence within 6 months of treatment with a platinum-based adjuvant/neoadjuvant regimen; measurable disease, as defined by RECIST v1.1; and an Eastern Cooperative Oncology Group (ECOG) performance status of 0 or 1. Participants were randomized to receive either atezolizumab at a dose of 1200 mg intravenously every three weeks or docetaxel 75 mg per meter square (mg/m^2) intravenously every three weeks. Treatment with atezolizumab could be continued as long as participants were experiencing clinical benefit, i.e., in the absence of unacceptable toxicity or symptomatic deterioration attributed to disease progression.
as §3
In the POPLAR ITT population (N=287), 273 samples were available for analysis. Of these, 6 were removed for sample contamination >1%; 9 were removed for median exon coverage <800×; and 47 were removed for low MSAF<1%.
The POPLAR BEP (N=211) includes 15 patients with EGFR mutation or ALK rearrangement, and 196 without known alterations.
as §4, with “sorted.” for “sorted. In order to accurately call variants at low allele frequencies and minimize artifacts from sequencing, PCR, or DNA damage-related errors, sequenced libraries were processed by a cfDNA computational pipeline that corrected errors via the use of fragment barcodes.”

CC(=O)O[C@@]12CO[C@@H]1C[C@H](O)[C@@]1(C)C(=O)[C@H](O)C3=C(C)[C@@H](OC(=O)[C@H](O)[C@@H](NC(=O)OC(C)(C)C)c4ccccc4)C[C@@](O)([C@@H](OC(=O)c4ccccc4)[C@H]21)C3(C)C [docetaxel]
median OS ([1]; bTMB≥16, per treatment arm): 6.8 months | best overall response rate ([1]; bTMB≥16 patients, per treatment arm): 10% | median OS [2]: 7.4 months | median PFS [2]: 2.9 months
